# Patent publication US4654373A, “Pharmaceutical formulations containing coenzyme Q10 suitable for topic administration” (Italfarmaco S.A., priority 1982, dated 1987)
# Legend:
# male New Zealand rabbits = test: Chronic toxicity, topical, 60 days, rabbits; conditions: 50 mg/kg/die, daily for 60 days
# Description: (§1) These tests were carried out by administering locally on the skin of two groups of 30 male Wistar rats and of 6 male New Zealand rabbits with the skin epilated, the skin of one group being epilated and abraded, a pharmaceutical composition for a total amount of 50 mg/kg/die of Coenzyme Q10.
# (§2) The administration went on daily for 60 consecutive days.
# (§3) Before the start of the treatment and at the end all the animals were subjected to a series of controls and examinations regarding the ponderal increase, red-cells and white cells count, haemoglobin concentration in the blood, glycemia, azotemia, transaminases and blood total proteins. The urinary elimination was also tested. At the end of treatment all the animals were killed and accurate anatomopathological and histopathological examinations were performed on each animal with particular regard to the zones of treated skin.
# dental caries = test: Dental caries in hamster fed by cariogenic diet; assay type: in vivo; conditions: 25 mg/kg on the dental gingival region
# [1] = system: dithranol (anthralin) induced inflammatory reaction; test: Test of dithranol induced cutaneous inflammation; assay type: in vivo, male Guinea pig; conditions: topical 2 mg/cm^2 cutis, both in peanut and soybean oil, 48 hours
# Description: Male Guinea pigs, weighing 330 g, were epilated at the back and, 24 hours after that, 20 mg of dithranol (anthralin) was intradermically injected into symmetric areas of the back.
# Coenzyme Q10 dissolved in peanut and soybean oil was spread on the backs of the animals under test, at the dosage of 2 mg/cm^2 cutis, whereas the control group of animals was subjected to no treatment.
# The treated area was covered with Nescofilm and bound up with Micropore.
# 48 Hours after the administration of the inflammatory agent, the size of the induced inflammatory area was evaluated.
# pregnant Wistar rats = test: Theratogenesis test, topical; conditions: topical on epilated and abraded skin, 50 mg/kg/die, seventh to fifteenth day of pregnancy
# Description: In order to evaluate if the administration by the topical route of Coenzyme Q10 could interfere on the normal ebryonal or phaetal development, a pharmaceutical composition of the invention corresponding to an amount of Coenzyme Q10 of 50 mg/kg/die was spread on the epilated and abraded skin of ten pregnant Wistar rats.
# The administration was carried out from the seventh to the fifteenth day of pregnancy.
# The main internal organs were also subjected to observation.
# experimental burns = test: Experimental burn in the rat; assay type: in vivo, male Wistar rat
# holes in rabbits' ears = test: Tissular regeneration and healing of holes in rabbits' ears; assay type: in vivo, New Zealand rabbit; conditions: topical composition, 5 mg/cc, versus not treated rabbits
# [2] = oral route; cited from earlier work
# [3] = Distribution after oral administration (HPLC); assay type: in vivo, rat; conditions: oral 50 mg/kg; for concentration at 0.5 h / concentration at 1 h / concentration at 6 h: rat; for concentration at 0.5 h: 30 min.; for concentration at 1 h: 60 min.
# Description: Rats were treated with 50 mg/kg of Coenzyme Q10 by oral route and the concentration of the active principle was determined by using the HPLC method in several organs after 30 min., 60 min. and 6 hours.
# New Zealand rabbits = test: Acute toxicity by topical cutaneous route in rabbits; assay type: in vivo, New Zealand rabbit; conditions: 5 to 20 mg per cm^2 of depilated (intact or abraded) back, immediately and after 8 days
# Description: Similar experiences were carried out also on a group of 8 New Zealand rabbits of both sexes, having the back depilated. The cutis of 4 of these animals was also abraded.
# Two days after the depilation, the compositions of the invention, corresponding to doses of Coenzyme Q10 ranging from 5 to 20 mg per square centimeter of area of the depilated back, were spread on the cutis of the animals so prepared.
# Wistar rats = test: Acute toxicity by topical cutaneous route in rats; assay type: in vivo, Wistar rat; conditions: 5 mg up to 20 mg per cm^2 of depilated (intact or abraded) skin, immediate and eight days after treatment
# Description: To assess the toxicity of the product administered by the topical cutaneous route, two groups of forty Wistar rats of both sexes in the same number, carefully depilated on the back, were used.
# To a group of these rats, the depilated skin was also abraded. On the cutis so prepared after two days the compositions of the invention containing increasing amounts of Coenzyme Q10 in the ratio of 5 mg up to 20 mg for each square centimeter of depilated skin, were spread for each group of ten rats.
# [4] = Distribution after parenteral (intramuscular) administration (HPLC); assay type: in vivo, rat; conditions: intramuscular 20 mg/kg; for concentration at 0.5 h / concentration at 1 h / concentration at 6 h: rat, im; for concentration at 0.5 h: 30 min.; for concentration at 1 h: 60 min.
# Description: Rats were treated with 20 mg/kg of Coenzyme Q10 by intramuscular injection and the concentration of the active compound was determined by HPLC after 30 min., 60 min. and 6 hours.
# [5] = Cutaneous concentration after topical administration (HPLC); assay type: in vivo, rat; conditions: topical 2 mg/cm^2, vegetal oils as solvents and excipients
# Description: Rats were cutaneously treated with 2 mg/cm^2 of skin of Coenzyme Q10 and the concentration was measured by the HPLC method. The results are listed in Table 3 for two different vehicles.
# [6] = in excipients compatible with parenteral administration; cited from earlier work
# [7] = cited from earlier work
# [8] = system: carrageenin oedema in the rat paw; test: Carrageenin oedema test in rats; assay type: in vivo, male rat; conditions: topical, both formulations
# Description: To male rats weighing 220 g, fasted for 24 hours, 0.1 ml of 1% carrageenin suspension was injected into the plantar surface of a hind paw.
# The control group, consisting of 25 animals, was administered with the only carrageenin, two other groups, consisting each of 25 animals, were topically administered with Coenzyme Q10 in form of two different formulations, in peanut oil and olive oil respectively, before the carrageenin injection. The results were expressed by means of a plethysmograph, which measured the size of the oedema 4 hours after the carrageenin injection.
# [9] = Cutaneous absorption of Coenzyme Q10 in the rat; assay type: in vivo, male Wistar rat; conditions: topical, 5 mg/kg/cm^2 of skin
# Description: In order to evaluate the cutaneous absorption of Coenzyme Q10 after its application on the skin a group of male Wistar rats of the average weight of 280 g was used. The animals were epilated on the back and a composition corresponding to a dose of Coenzyme Q10 of 5 mg/kg/cm^2 of skin was applied on the epilated back.
# Samples of skin were then removed both from treated and untreated animals at intervals of 1, 3, 6 and 24 hours from treatment. The skin, together with the removed subcutaneous tissue, was homogenized and kept at -20° C. till the moment of analysis.
# Samples of 5 g each of tissue were saponified in the presence of pyrogallole.
# The fraction containing Coenzyme Q10 and other neutral fats was extracted with hydrocarbon solvents and purified chromatographically on column.
# The spectrophotometric measurement was performed according to the method described by Linn B. O., Page A. C., Wong E. L., Gale, P. H., Shunk C. H., Folkers K. [J. Am. Chem. Soc., 81, 4007 (1959)].
# male Wistar rats = test: Chronic toxicity, topical, 60 days, rats; conditions: 50 mg/kg/die, daily for 60 days
# Description: as §1, §2, §3
# [10] = Cutaneous absorption in volunteers; assay type: in vivo, human (health volunteers); conditions: human, skin, topical or ocular, 1 mg/cm^2, corneous layer removed, read-out: mean percent absorption
# Description: For these tests the method described by Tauber and al. [Arzneimittel Forschung, 26, N7b, 1492 (1976)].
# On 4 health volunteers, areas of about 30 cm^2 of skin whose corneous layer had been removed, were spread with a composition corresponding to 1 mg/cm^2 of Coenzyme Q10.
# Immediately after the application and after 24 hours from the application on the skin, the composition not absorbed was removed by cotton-wool and the cotton-wool used for the removal was extracted with chloroform/ethanol.
# After saponification in presence of pyrogallole the fraction containing Coenzyme Q10 and other neutral fact was extracted with hydrocarbon solvents and purified chromatographically on column.
# The spectrophotometric measure was carried out according to the method described by Linn and al. [J. Am. Chem. Soc., 81, 4007 (1959)].
# [11] = heart, read-out: Mean tissutal concentration
# [12] = kidney, read-out: Mean tissutal concentration
# [13] = liver, read-out: Mean tissutal concentration
# [14] = plasma, read-out: Mean plasmatic concentration
# [15] = oral 50-100 mg/dosage (100-200 mg pro die)
smiles,measurement,setting,value
"COC1=C(OC)C(=O)C(CC=C(C)CCC=C(C)CCC=C(C)CCC=C(C)CCC=C(C)CCC=C(C)CCC=C(C)CCC=C(C)CCC=C(C)CCC=C(C)C)=C(C)C1=O [Coenzyme Q10, 2,3-dimethoxy-5-methyl-6-decaprenyl-benzoquinone]",biological parameters versus untreated controls,male New Zealand rabbits,"did not show, in comparison with the untreated control animals, any significative difference in the different biological parameters considered"
same,histological examination of the skin,male New Zealand rabbits,did not show any pathological change
same,treated animals in which onset of dental caries is prevented,dental caries,more than 50%
same,decrease of inflammatory areas with respect to non-treated animals,[1],50%
same,alteration or malformation of phoetuses,pregnant Wistar rats,no alteration or malformation was noticed
same,seriousness of the lesions (in words),"experimental burns; preventive topical application, 1-2 mg/cm^2 of skin",decreased in fact the seriousness of the lesions
same,protective effect on experimental burn (in words),experimental burns; topical route,protective effect
same,reduction of the seriousness of the burn (Blue Evans),"experimental burns; treated daily, 1-2 mg/cm^2 of skin, 4 consecutive days preceding burn induction",more than 50%
same,seriousness of the burn versus control rats (Blue Evans),experimental burns; treated only once half an hour before burn induction,not significantly different
same,tissular regeneration and healing processes,holes in rabbits' ears,much faster than in the not treated rabbits
same,LD50,[2],higher than 4 g/kg
same,cutaneous concentration (in words),[3],no appreciable appearance of cutaneous concentration
same,heart concentration change (in words),[3],substantial changes occur at the heart level
same,plasmatic concentration change (in words),[3],negligeable
same,concentration at 0.5 h,[3]; [11],7100 ng/g
same,concentration at 1 h,[3]; [11],12300 ng/g
same,concentration at 6 h,[3]; [11],14700 ng/g
same,concentration at 0.5 h,[3]; [12],6500 ng/g
same,concentration at 1 h,[3]; [12],10100 ng/g
same,concentration at 6 h,[3]; [12],15600 ng/g
same,concentration at 0.5 h,[3]; [13],4100 ng/g
same,concentration at 1 h,[3]; [13],7100 ng/g
same,concentration at 6 h,[3]; [13],9800 ng/g
same,concentration at 0.5 h,[3]; [14],170 ng/mL
same,concentration at 1 h,[3]; [14],190 ng/mL
same,concentration at 6 h,[3]; [14],2700 ng/mL
same,mortality or clear toxicity,New Zealand rabbits,"neither immediately after the administration nor after 8 days, mortality cases or clear toxicity were noticed"
same,"mortality, toxic effect or intolerance",Wistar rats,"did not show the appearance of any mortality cases, toxic effect or intolerance"
same,cutaneous concentration (in words),[4],no concentration in the cutis is present at any time
same,concentration at 0.5 h,[4]; [11],10500 ng/g
same,concentration at 1 h,[4]; [11],14300 ng/g
same,concentration at 6 h,[4]; [11],16200 ng/g
same,concentration at 0.5 h,[4]; [12],9500 ng/g
same,concentration at 1 h,[4]; [12],11500 ng/g
same,concentration at 6 h,[4]; [12],10200 ng/g
same,concentration at 0.5 h,[4]; [13],11700 ng/g
same,concentration at 1 h,[4]; [13],12600 ng/g
same,concentration at 6 h,[4]; [13],14400 ng/g
same,concentration at 0.5 h,[4]; [14],270 ng/mL
same,concentration at 1 h,[4]; [14],940 ng/mL
same,concentration at 6 h,[4]; [14],800 ng/mL
same,concentration at the cutis level (in words),[5],A good increase
same,solubility (in words),[6],very low solubility
same,clinical results (in words),[7]; [15],satisfactory clinical results
same,side-effects (in words),[7]; [15],"increases, sometimes intolerably, the side-effects of the drug"
same,change in Coenzyme Q10 in peripheral tissues (in words),[7]; oral administration of high doses,no changes in Coenzyme Q10 are detectable
same,carrageenin oedema inhibition (in words),[8],partially inhibited
same,time of highest concentrations in cutaneous tissue,[9],from the third to the sixth hour after the administration
same,biological parameters versus untreated controls,male Wistar rats,"did not show, in comparison with the untreated control animals, any significative difference in the different biological parameters considered"
same,histological examination of the skin,male Wistar rats,did not show any pathological change
same,Fa at 24 h,[10],18.5 ± 6.2%
